Assay results as given in patent US9725432B2, “Pyrimidine derivatives for the treatment of bacterial diseases” (JANSSEN R&D IRELAND, priority 2012, dated 2017).
In brackets after ≈: the same amount, converted by molar mass.

Experiments:
Staphylococcus aureus [1] = experiment: MIC determination of compounds on ECO/PAE/STA in microplates; assay type: cell-based; conditions: lowest concentration with no growth (90% inhibition of growth), 18-20 hours at 37° C., visual, strain not given
Staphylococcus aureus [2] = experiment: Antibacterial susceptibility testing: IC90 determination (broth microdilution, resazurin fluorescence); assay type: cell-based; conditions: 90% inhibitory concentration for bacterial growth, Mueller Hinton broth, 35° C., 16-20 hours, strain not given
Description: Preparation of Bacterial Suspensions for Susceptibility Testing
The following bacteria were used: Staphylococcus aureus ATCC 29213, methicillin-resistant Staphylococcus aureus (MRSA) ATCC 700788 and Escherichia coli ATCC 35218. The bacteria used in this study were grown overnight in flasks containing 100 ml Mueller-Hinton broth (Difco cat. nr. 0757-17) in sterile de-ionized water, with shaking, at 37° C. Stocks were store at −70° C. until use.
Bacteria were incubated on a tryptic soy agar plate containing 5% sheep blood (Becton Dickinson cat. nr. 254053) for 18-24 hours at 35° C. in aerobic conditions (first passage). For the second passage, fresh Mueller-Hinton broth is inoculated with 5-10 colonies and grown overnight at 35° C. until turbidity (reaching log-phase) in aerobic conditions is reached. The bacterial suspension is then adjusted to 0.5 McFarland density and further diluted 1:100 in Mueller Hinton broth medium. This is used as inoculum.
Antibacterial Susceptibility Testing: IC90 Determination
MIC assays were performed by the broth microdilution method in a 96-well format (flat-bottom microtitre plates) with a final volume of 0.1 ml Mueller Hinton broth containing two-fold serial dilutions of compounds and inoculated with 5×10^5 CFU/ml of bacteria (standard inoculum size according to CLSI guidelines). Inhibitors are typically varied over the range of 63 to 0.49 μM. The final DMSO concentration in the assay was 1.25% (maximum tolerable DMSO concentration=6%). In the assays where the effect of human serum on the activity of the compounds against S. aureus was tested, human serum was added at a final concentration of 10%. The plates were incubated at 35° C. for 16-20 hours. At the end of incubation the bacterial growth was quantified fluorometrically. For this, resazurin was added to all wells and the plates were re-incubated. The incubation time is dependent on the type of bacteria. A change in color from blue to pink indicated the growth of bacteria. The fluorescence was read in computer-controlled fluorometer (Fluoroskan Ascent FL, Labsystems) at an excitation wavelength 540 nm and an emission wavelength of 590 nm. The % growth inhibition achieved by the compounds was calculated according to standard methods. The IC90 (expressed in μg/ml) was defined as the 90% inhibitory concentration for bacterial growth. A panel of reference compounds were simultaneously tested for QC approval.

Cytotoxicity MTT assay = assay type: cell-based; conditions: human, HelaM cells, concentration that causes 50% reduction in cell viability
Description: Cytotoxicity of the compounds was evaluated using the MTT assay. Human HelaM cells grown in 96-well plates were exposed to serial dilutions of the tested compounds (final volume of 0.2 ml) and incubated for 72 hours at 37° C. and 5% CO2 Inhibitors are typically varied over the range of 25 to 0.8 μM. The final DMSO concentration in the assay is 0.5%. MTT (3-(4,5-Dimethylthiazol-2-yl)-2,5-diphenyltetrazolium bromide, a tetrazole) was added and reduced to purple formazan only in living cells. Solubilization of the formazan crystals was achieved by adding 100 μl 2-propanol. Cell viability was determined by measuring the absorbance of the reduced formazan, giving a purple color, at 540 nm and 690 nm. The absorbance measured at 690 nm was automatically subtracted from the absorbance at 540 nm, to eliminate the effects of non-specific absorption. The percent cytotoxicity achieved by the compounds was calculated according to standard methods. Cytotoxicity is reported as CC50, the concentration that causes a 50% reduction in cell viability.

Compound | MIC90 (Staphylococcus aureus [1]) | melting point | IC90 (Staphylococcus aureus [2]) | CC50 at 72 h (Cytotoxicity MTT assay)
COc1cccc(-c2cnc(-c3ccc(OC)nc3)nc2C2CCN(CC(F)(F)F)CC2)c1 [Compound 79] | 0.125 µg/mL (≈ 0.273 µM) | – | – | –
COc1ccc(-c2ncc(-c3cccc(C#N)c3)c(C3CCN(CC(C)(C)C#N)CC3)n2)cn1 [Compound 85] | 0.125 µg/mL (≈ 0.276 µM) | 165 °C | – | –
COc1cccc(-c2cnc(-c3ccc(OC)nc3)nc2C2CCN(CC(C)(C)C#N)CC2)c1 [Compound 81] | 0.125 µg/mL (≈ 0.273 µM) | – | – | –
CC(C)(C#N)CN1CCC(c2nc(-c3ccc(S(C)(=O)=O)cc3)ncc2-c2cccc(C#N)c2)CC1 [Compound 87] | 2 µg/mL (≈ 4 µM) | 101 to 122 °C | – | –
CC(C)(C)S(=O)(=O)N1CCC(c2nc(-c3ccc(F)cc3)ncc2-c2cccc(C#N)c2)CC1 [Compound 89] | 0.125 µg/mL (≈ 0.261 µM) | – | – | –
CC(C)(C#N)CN1CCC(c2nc(-c3cncnc3)ncc2-c2cccc(C#N)c2)CC1 [Compound 82] | 1 µg/mL (≈ 2.36 µM) | 182 °C | – | –
COc1cccc(-c2cnc(-c3ccc(C#N)cc3)nc2C2CCN(CC(F)(F)F)CC2)c1 [Compound 83] | 0.125 µg/mL (≈ 0.276 µM) | 180 to 182 °C | – | –
CC(C)(C)CN1CCC(c2nc(-c3ccc(F)cc3)ncc2-c2cccc(C#N)c2)CC1 [Compound 66] | – | 154 to 158 °C | < 0.21 µg/mL | 8.8 µg/mL (≈ 20.5 µM)
COc1cccc(-c2cnc(-c3ccncc3)nc2C2CCN(Cc3ccc(C#N)cc3)CC2)c1 [Compound 34] | – | 168 °C | 6.99 µg/mL (≈ 15.1 µM) | 8.7 µg/mL (≈ 18.8 µM)
COc1cccc(-c2cnc(-c3ccncc3)nc2C2CCN(CC(C)C)CC2)c1 [Compound 11] | – | 105 to 106 °C | 5.49 µg/mL (≈ 13.6 µM) | > 10.1 µg/mL
COc1cccc(-c2cnc(-c3ccncc3)nc2C2CCN(Cc3ccc(F)cc3F)CC2)c1 [Compound 32] | – | 138 °C | 3.27 µg/mL (≈ 6.92 µM) | 5.5 µg/mL (≈ 11.6 µM)
COc1cccc(-c2cnc(-c3ccncc3)nc2C2CCN(Cc3cccc(F)c3)CC2)c1 [Compound 3] | – | 111 to 114 °C | 5.59 µg/mL (≈ 12.3 µM) | > 4.5 µg/mL
COc1cccc(-c2cnc(-c3ccncc3)nc2C2CCN(Cc3ccccc3C#N)CC2)c1 [Compound 42] | – | 158 °C | 6.75 µg/mL (≈ 14.6 µM) | 5.1 µg/mL (≈ 11 µM)
COc1cccc(-c2cnc(-c3ccc(Br)cc3)nc2C2CCN(CC(C)(C)C#N)CC2)c1 [Compound 88] | 0.125 µg/mL (≈ 0.247 µM) | – | – | –
CC(C)(C)CN1CCC(c2nc(-c3ccncc3)ncc2-c2cccc(Cl)c2)CC1 [Compound 39] | – | 119 to 121 °C | 0.76 µg/mL (≈ 1.81 µM) | 7.3 µg/mL (≈ 17.3 µM)
COc1cccc(-c2cnc(-c3ccc(Br)cc3)nc2C2CCN(CC(C)(C)C)CC2)c1 [Compound 90] | 0.25 µg/mL (≈ 0.506 µM) | – | – | –
COc1cccc(-c2cnc(-c3ccncc3)nc2C2CCN(Cc3cccc(C#N)c3)CC2)c1 [Compound 31] | – | 140 °C | 7.32 µg/mL (≈ 15.9 µM) | 4.2 µg/mL (≈ 9.1 µM)
CC(C)(C)CN1CCC(c2nc(-c3ccncc3)ncc2-c2cccc(C#N)c2)CC1 [Compound 54] | – | 155 °C | 1.29 µg/mL (≈ 3.13 µM) | > 10.3 µg/mL
COc1cccc(-c2cnc(-c3ccncc3)nc2C2CCN(Cc3c(F)cccc3F)CC2)c1 [Compound 47] | – | 184 °C | 1.74 µg/mL (≈ 3.68 µM) | 2.1 µg/mL (≈ 4.44 µM)
N#Cc1cccc(-c2cnc(-c3cccnc3)nc2C2CCCN(CC(F)(F)F)C2)c1 (stereo not drawn) [Compound 60] | – | 52 to 92 °C | > 26.7 µg/mL | > 10.6 µg/mL
CC(C)(C)CN1CCC(c2nc(-c3cncnc3)ncc2-c2cccc(C#N)c2)CC1 [Compound 68] | – | 163 to 170 °C | 6.1 µg/mL (≈ 14.8 µM) | > 10.4 µg/mL
CC(C)(C)CN1CCC(c2nc(-c3cccnc3)ncc2-c2cccc(C#N)c2)CC1 [Compound 69] | – | 148 to 150 °C | 3.02 µg/mL (≈ 7.34 µM) | > 10.3 µg/mL
Cc1ccc(-c2cnc(-c3ccncc3)nc2C2CCN(CC(C)(C)C)CC2)cc1 [Compound 38] | – | 170 to 171 °C | 5.04 µg/mL (≈ 12.6 µM) | > 4 µg/mL
COc1cccc(-c2cnc(-c3ccncc3)nc2C2CCN(Cc3ccco3)CC2)c1 [Compound 18] | – | 120 °C | 13 µg/mL (≈ 30.5 µM) | > 10.7 µg/mL
COc1cccc(-c2cnc(-c3ccncc3)nc2C2CCN(CC3CCCCC3)CC2)c1 [Compound 17] | – | 130 °C | 13.4 µg/mL (≈ 30.2 µM) | > 11.1 µg/mL
COc1cccc(-c2cnc(-c3ccccn3)nc2C2CCN(Cc3cc(Cl)ccc3O)CC2)c1 [Compound 23] | – | 165 to 166 °C | 7.37 µg/mL (≈ 15.1 µM) | 4.4 µg/mL (≈ 9.03 µM)
COc1cccc(-c2cnc(-c3cccnc3)nc2C2CCN(C(=O)C(C)Oc3ccccc3)CC2)c1 (stereo not drawn) [Compound 27] | – | 138 to 140 °C | 9.1 µg/mL (≈ 18.4 µM) | 7.1 µg/mL (≈ 14.4 µM)

Further lines, with some results ahead:

MIC90 (Staphylococcus aureus [1]) | melting point | IC90 (Staphylococcus aureus [2]) | Compound | CC50 at 72 h (Cytotoxicity MTT assay)
0.125 µg/mL (≈ 0.284 µM) | 171 °C | – | CC(C)(C#N)CN1CCC(c2nc(-c3ccc(F)cc3)ncc2-c2cccc(C#N)c2)CC1 [Compound 80] | –
0.125 µg/mL (≈ 0.303 µM) | 155 to 164 °C | – | CC(C)(C)CN1CCN(c2nc(-c3ccncc3)ncc2-c2cccc(C#N)c2)CC1 [Compound 74] | –
– | 130 °C | 5.57 µg/mL (≈ 12.6 µM) | COc1cccc(-c2cnc(-c3ccncc3)nc2C2CCN(Cc3cccs3)CC2)c1 [Compound 19] | > 11.1 µg/mL
> 64 µg/mL | – | – | CC(C)(C)CNCCNc1nc(-c2ccncc2)ncc1-c1cccc(C#N)c1 [Compound 73] | –
– | 117 to 120 °C | 0.39 µg/mL (≈ 0.934 µM) | COc1cccc(-c2cnc(-c3ccncc3)nc2N2CCN(CC(C)(C)C)CC2)c1 [Compound 21] | 5.9 µg/mL (≈ 14.1 µM)
– | 153 to 156 °C | 5.78 µg/mL (≈ 15 µM) | COc1cccc(-c2cnc(-c3ccncc3)nc2C2CCN(C3CC3)CC2)c1 [Compound 12] | > 9.7 µg/mL
0.5 µg/mL (≈ 1.14 µM) | – | – | C#Cc1ccc(-c2ncc(-c3cccc(OC)c3)c(C3CCN(CC(C)(C)C)CC3)n2)cc1 [Compound 91] | –
0.125 µg/mL (≈ 0.277 µM) | – | – | C#Cc1ccc(-c2ncc(-c3cccc(OC)c3)c(C3CCN(CC(F)(F)F)CC3)n2)cc1 [Compound 93] | –
– | 140 to 142 °C | 3.04 µg/mL (≈ 7.08 µM) | CN(C)c1cccc(-c2cnc(-c3ccncc3)nc2C2CCN(CC(C)(C)C)CC2)c1 [Compound 37] | 9.2 µg/mL (≈ 21.4 µM)
– | 131 °C | 2.23 µg/mL (≈ 4.73 µM) | COc1cccc(-c2cnc(-c3ccncc3)nc2C2CCN(Cc3ccc(Cl)cc3)CC2)c1 [Compound 44] | 7 µg/mL (≈ 14.9 µM)
0.125 µg/mL (≈ 0.277 µM) | – | – | C#Cc1ccc(-c2ncc(-c3cccc(OC)c3)c(C3CCN(CC(C)(C)C#N)CC3)n2)cc1 [Compound 92] | –
– | 57 to 113 °C | > 25.9 µg/mL | CC(C)(C)CN1CCCC(c2nc(-c3cccnc3)ncc2-c2cccc(C#N)c2)C1 (stereo not drawn) [Compound 62] | > 10.3 µg/mL
– | 117 °C | 0.39 µg/mL (≈ 0.912 µM) | COc1cccc(-c2cnc(-c3ccncc3)nc2C2CCN(CC(C)(C)C#N)CC2)c1 [Compound 57] | 7.3 µg/mL (≈ 17.1 µM)
– | 144 to 145 °C | 0.81 µg/mL (≈ 1.83 µM) | COc1ccc(-c2ncc(-c3cccc(C#N)c3)c(C3CCN(CC(C)(C)C)CC3)n2)cn1 [Compound 67] | > 11.1 µg/mL
– | 174 °C | 6.92 µg/mL (≈ 15.9 µM) | COc1cccc(-c2cnc(-c3ccncc3)nc2C2CCN(Cc3ccccc3)CC2)c1 [Compound 16] | > 11 µg/mL
